Drawing on US9868746B2, “Substituted 5-aminothieno[2,3-C]pyridazine-6-carboxamide analogs as positive allosteric modulators of the muscarinic acetylcholine receptor M4” (Vanderbilt University, priority 2012, dated 2018), this text covers Emax and EC50 for 53 compounds.

This assay deals with T1, mAChR M4 (Homo sapiens, UniProt P08173).
T1 construct: expressed in transfected cells; host or cells: CHO-K1 cells stably transfected with M4 cDNA and chimeric G-protein Gqi5
T1 sequence (P08173 1-479): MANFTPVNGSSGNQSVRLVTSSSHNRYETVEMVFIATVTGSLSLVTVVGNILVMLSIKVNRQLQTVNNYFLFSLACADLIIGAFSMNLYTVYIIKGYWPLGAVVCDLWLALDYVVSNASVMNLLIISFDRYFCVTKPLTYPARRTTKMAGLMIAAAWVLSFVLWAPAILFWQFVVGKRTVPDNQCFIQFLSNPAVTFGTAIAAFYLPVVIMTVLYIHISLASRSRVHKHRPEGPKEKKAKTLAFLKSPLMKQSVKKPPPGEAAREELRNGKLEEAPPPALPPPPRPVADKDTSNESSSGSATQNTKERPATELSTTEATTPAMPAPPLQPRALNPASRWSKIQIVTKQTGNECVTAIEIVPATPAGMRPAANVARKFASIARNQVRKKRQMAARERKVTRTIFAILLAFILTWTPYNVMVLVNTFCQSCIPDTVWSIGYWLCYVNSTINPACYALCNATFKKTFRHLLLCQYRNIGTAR
Briefly: mAChR M4 cell-based functional assay (calcium mobilization, potentiation of EC20 acetylcholine response). Conditions: for Emax at 30 µM: % ACh maximum at 30 μM; for EC50: mAChR M4 cell-based functional assay, >10,000 estimated for low potency compounds without plateau, read-out: EC50.

A value given as a limit tells only on which side of the number the result lay.

Consider `Cc1nnc2sc(C(=O)N3CCC(C4CCCCC4)C3)c(N)c2c1C` (stereo not shown) [Example B379], for which the Emax at 30 µM amounted to 45% and the EC50 was 3900 nM.

As to `Cc1nnc2sc(C(=O)N3CCc4nn(C)cc4C3)c(N)c2c1C` [Example B380], the maximal response (Emax) at 30 µM is 34% and the EC50 is more than 10000 nM.

For the compound `Cc1nnc2sc(C(=O)N3CCC4(CCCC4)C3)c(N)c2c1C` [Example B381], the maximal effect (Emax) at 30 µM came out at 63% and the EC50 was 710 nM.

For `Cc1nnc2sc(C(=O)N3CCC[C@H]3C)c(N)c2c1C` [Example B382], the maximal effect (Emax) at 30 µM was 45% and the EC50 was more than 10000 nM.

In the case of `Cc1nnc2sc(C(=O)N3CC(F)(c4ccc(S(C)(=O)=O)cc4)C3)c(N)c2c1C` [Example B383], the Emax at 30 µM turned out to be 51% and the EC50 was 510 nM.

Turning to `Cc1nnc2sc(C(=O)N3CC(F)(c4ccc([S+](C)[O-])cc4)C3)c(N)c2c1C` (stereo not shown) [Example B384], the maximal response (Emax) at 30 µM stood at 71% and the EC50 was 1100 nM.

For `Cc1nnc2sc(C(=O)N3CC4CN(C(=O)C5CCC5)CC4C3)c(N)c2c1C` (stereo not shown) [Example B385], the Emax at 30 µM worked out at 55% and the EC50 was 2600 nM.

`Cc1nnc2sc(C(=O)N3CC4CN(C(=O)CC5CCCCC5)CC4C3)c(N)c2c1C` (stereo not shown) [Example B386]: the Emax at 30 µM was found to be 44% and the EC50 is 820 nM.

On to `Cc1nnc2sc(C(=O)NCc3ccc(S(=O)(=O)CCO)cc3)c(N)c2c1C` [Example B387], for which the Emax at 30 µM was found to be 77% and the half-maximal effective concentration (EC50) is 68 nM.

As for `Cc1nnc2sc(C(=O)N3CC4CN(C(=O)C(C)C)CC4C3)c(N)c2c1C` (stereo not shown) [Example B388], the Emax at 30 µM stood at 55% and the EC50 was more than 10000 nM.

On to `CCCCC(=O)N1CC2CN(C(=O)c3sc4nnc(C)c(C)c4c3N)CC2C1` (stereo not shown) [Example B389], for which the Emax at 30 µM was 47% and the concentration for a half-maximal effect (EC50) is 1300 nM.

`Cc1nnc2sc(C(=O)NC3(c4ccc(F)cc4)CC3)c(N)c2c1C` [Example B390]: the Emax at 30 µM amounted to 46% and the EC50 was more than 10000 nM.

In the case of `Cc1nnc2sc(C(=O)NC3CN(C(=O)c4ccc(F)cc4F)C3)c(N)c2c1C` [Example B391], the Emax at 30 µM was 88% and the EC50 was 300 nM.

`Cc1nnc2sc(C(=O)NC3CN(C(=O)c4cccc(Cl)c4)C3)c(N)c2c1C` [Example B392]: the Emax at 30 µM is 60% and the concentration for a half-maximal effect (EC50) was 74 nM.

For `Cc1nnc2sc(C(=O)N3CC(F)(c4ccc(S(=O)(=O)CF)cc4)C3)c(N)c2c1C` [Example B393], the Emax at 30 µM amounted to 44% and the EC50 is 400 nM.

As for `Cc1nnc2sc(C(=O)N3CC4(C3)CN(S(=O)(=O)c3ccccc3)C4)c(N)c2c1C` [Example B394], the Emax at 30 µM came to 47% and the half-maximal effective concentration (EC50) is 1100 nM.

`CCc1ccc(CNC(=O)c2sc3nnc(C)c(C)c3c2N)cc1` [Example B395]: the Emax at 30 µM is 71% and the concentration giving a half-maximal response (EC50) was 47 nM.

On to `Cc1nnc2sc(C(=O)NC3CN(C(=O)c4ccccc4F)C3)c(N)c2c1C` [Example B396], for which the maximal effect (Emax) at 30 µM stood at 70% and the EC50 was 200 nM.

With `COc1ccccc1C(=O)N1CC(NC(=O)c2sc3nnc(C)c(C)c3c2N)C1` [Example B397], the maximum response (Emax) at 30 µM worked out at 64% and the EC50 is 430 nM.

For `Cc1nnc2sc(C(=O)N3CC4(CN(C(=O)OCc5ccccc5)C4)C3)c(N)c2c1C` [Example B398], the Emax at 30 µM was determined as 47% and the EC50 is 1000 nM.

`COc1ncc(CNC(=O)c2sc3nnc(C)c(C)c3c2N)cn1` [Example B399]: the maximal response (Emax) at 30 µM is 62% and the EC50 was 290 nM.

As for `COc1ccc(C(=O)N2CC(NC(=O)c3sc4nnc(C)c(C)c4c3N)C2)cc1` [Example B400], the maximal response (Emax) at 30 µM turned out to be 63% and the EC50 was 52 nM.

As to `Cc1nnc2sc(C(=O)N3CC(F)(c4cccc(N=[N+]=[N-])c4)C3)c(N)c2c1C` [Example B401], the Emax at 30 µM stood at 54% and the EC50 is 3100 nM.

As for `Cc1nnc2sc(C(=O)N3CC4(C3)CN(C(=O)C3CCCC3)C4)c(N)c2c1C` [Example B402], the maximal response (Emax) at 30 µM stood at 46% and the EC50 was 3300 nM.

Consider `Cc1nnc2sc(C(=O)NC3CN(C(=O)c4cccc(F)c4)C3)c(N)c2c1C` [Example B403], for which the Emax at 30 µM was found to be 71% and the concentration giving a half-maximal response (EC50) is 110 nM.

For `Cc1nnc2sc(C(=O)N3CC4(CN(C(=O)c5ccccc5)C4)C3)c(N)c2c1C` [Example B404], the Emax at 30 µM was 50% and the EC50 was more than 10000 nM.

Turning to `Cc1nnc2sc(C(=O)N3CC(Sc4ccccc4)C3)c(N)c2c1C` [Example B405], the maximal response (Emax) at 30 µM turned out to be 46% and the EC50 was 92 nM.

For the compound `Cc1nnc2sc(C(=O)N3CC(S(C)(=O)=O)C3)c(N)c2c1C` [Example B406], the maximal response (Emax) at 30 µM was found to be 54% and the 50% effective concentration (EC50) is 1700 nM.

`Cc1nnc2sc(C(=O)NCc3ccc4c(c3)CN(C(C)C)C4=O)c(N)c2c1C` [Example B407]: the Emax at 30 µM came to 61% and the EC50 was 220 nM.

Turning to `Cc1nnc2sc(C(=O)NC3CN(C(=O)c4c(F)cccc4F)C3)c(N)c2c1C` [Example B408], the Emax at 30 µM is 65% and the EC50 is 270 nM.

Regarding `Cc1nnc2sc(C(=O)NC3CN(C(=O)c4ccc(OC(F)(F)F)cc4)C3)c(N)c2c1C` [Example B409], the maximal effect (Emax) at 30 µM amounted to 65% and the EC50 was 120 nM.

For the compound `Cc1nnc2sc(C(=O)NCc3cccc(OC(F)(F)F)c3)c(N)c2c1C` [Example B410], the maximal effect (Emax) at 30 µM came to 53% and the concentration for a half-maximal effect (EC50) was 200 nM.

For `Cc1nnc2sc(C(=O)NCc3ccc(OCF)cc3)c(N)c2c1C` [Example B411], the maximal effect (Emax) at 30 µM is 82% and the 50% effective concentration (EC50) was 53 nM.

`Cc1nnc2sc(C(=O)NCc3ccc(OC(F)F)nc3)c(N)c2c1C` [Example B412]: the Emax at 30 µM is 85% and the EC50 was 67 nM.

As to `Cc1nnc2sc(C(=O)N3CC(S(=O)(=O)c4ccccc4)C3)c(N)c2c1C` [Example B413], the Emax at 30 µM was 54% and the concentration for a half-maximal effect (EC50) was 350 nM.

`Cc1nnc2sc(C(=O)N3CC(Sc4ccc(F)c(F)c4)C3)c(N)c2c1C` [Example B414]: the maximal response (Emax) at 30 µM is 63% and the concentration giving a half-maximal response (EC50) was 340 nM.

On to `Cc1nnc2sc(C(=O)N3CC(S(=O)(=O)c4ccc(F)c(F)c4)C3)c(N)c2c1C` [Example B415], for which the Emax at 30 µM came out at 44% and the 50% effective concentration (EC50) was 1300 nM.

As to `COc1ccc(SC2CN(C(=O)c3sc4nnc(C)c(C)c4c3N)C2)cc1` [Example B416], the maximal response (Emax) at 30 µM was 61% and the EC50 was 110 nM.

For `COc1ccc(S(=O)(=O)C2CN(C(=O)c3sc4nnc(C)c(C)c4c3N)C2)cc1` [Example B417], the Emax at 30 µM worked out at 46% and the 50% effective concentration (EC50) was 750 nM.

Take `COc1cccc(SC2CN(C(=O)c3sc4nnc(C)c(C)c4c3N)C2)c1` [Example B418]: the maximum response (Emax) at 30 µM amounted to 56% and the EC50 is 160 nM.

`Cc1nnc2sc(C(=O)N3CC(Sc4ccc(F)cc4F)C3)c(N)c2c1C` [Example B419]: the Emax at 30 µM amounted to 56% and the concentration for a half-maximal effect (EC50) is 220 nM.

On to `Cc1nnc2sc(C(=O)NCc3ccc(C(F)F)nc3)c(N)c2c1C` [Example B420], for which the maximal effect (Emax) at 30 µM came to 71% and the EC50 was 270 nM.

For the compound `Cc1nnc2sc(C(=O)NC3CN(C(=O)Oc4ccc(N=[N+]=[N-])cc4)C3)c(N)c2c1C` [Example B421], the maximal effect (Emax) at 30 µM was determined as 84% and the concentration for a half-maximal effect (EC50) was 15 nM.

Turning to `Cc1nnc2sc(C(=O)NC3CN(c4nc5ccccc5s4)C3)c(N)c2c1C` [Example B422], the maximal effect (Emax) at 30 µM was determined as 73% and the EC50 was 17 nM.

For `Cc1nnc2sc(C(=O)NC3CN(C(=O)N(C)c4ccccc4)C3)c(N)c2c1C` [Example B423], the Emax at 30 µM worked out at 59% and the half-maximal effective concentration (EC50) was 53 nM.

As for `Cc1nnc2sc(C(=O)NC3CN(C(=O)Oc4cccc(N=[N+]=[N-])c4)C3)c(N)c2c1C` [Example B424], the Emax at 30 µM was 68% and the concentration for a half-maximal effect (EC50) was 7.9 nM.

On to `Cc1nnc2sc(C(=O)NC3CN(c4nc5ccccc5o4)C3)c(N)c2c1C` [Example B425], for which the maximum response (Emax) at 30 µM came to 74% and the concentration for a half-maximal effect (EC50) is 28 nM.

Turning to `Cc1nnc2sc(C(=O)NC3CN(c4ncc(-c5ccccc5)s4)C3)c(N)c2c1C` [Example B426], the Emax at 30 µM is 67% and the EC50 is 440 nM.

For the compound `Nc1c(C(=O)NCc2ccc(S(=O)(=O)C(F)F)cc2)sc2nnc3c(c12)CCCC3` [Example B427], the Emax at 30 µM worked out at 39% and the concentration giving a half-maximal response (EC50) is 59 nM.

As for `Nc1c(C(=O)NCc2ccc(S(=O)(=O)CF)cc2)sc2nnc3c(c12)CCCC3` [Example B428], the maximal effect (Emax) at 30 µM was determined as 51% and the concentration giving a half-maximal response (EC50) is 88 nM.

Consider `Cc1nnc2sc(C(=O)NC3CN(c4ncc(Br)cn4)C3)c(N)c2c1C` [Example B429], for which the Emax at 30 µM stood at 67% and the EC50 is 23 nM.

Regarding `Cc1nnc2sc(C(=O)NC3CN(c4nccs4)C3)c(N)c2c1C` [Example B430], the Emax at 30 µM amounted to 58% and the EC50 is 2100 nM.

As to `Cc1nnc2sc(C(=O)NCc3ccc(C#N)cc3)c(N)c2c1C` [Example B431], the maximal response (Emax) at 30 µM came to 56% and the EC50 is 120 nM.

Usually Emax stands for the size of the effect at its maximum, as opposed to the concentration needed. In general, EC50 refers to the concentration at which the effect is half-maximal.
